Reference: US5446043A, “Isoquinolyl, quinoxalinyl and quinazolinyl derivatives as inhibitors of 5-lipoxygenase” (Imperial Chemical Industries Plc, priority 1989, dated 1995)

Legend:
[1] = target: T1, cyclooxygenase (Homo sapiens, UniProt P23219); assay: Test b) heparinised human blood challenged with A23187, TxB2 radioimmunoassay (cyclooxygenase); type: cell-based; details: A23187, T×B2
T1 construct: incubating a test compound with heparinised human blood, prior to challenge with the calcium ionophore A23187; endogenous in cells; host or cells: blood cells (chiefly platelets, own knowledge) in heparinised human whole blood
T1 sequence (P23219 24-599): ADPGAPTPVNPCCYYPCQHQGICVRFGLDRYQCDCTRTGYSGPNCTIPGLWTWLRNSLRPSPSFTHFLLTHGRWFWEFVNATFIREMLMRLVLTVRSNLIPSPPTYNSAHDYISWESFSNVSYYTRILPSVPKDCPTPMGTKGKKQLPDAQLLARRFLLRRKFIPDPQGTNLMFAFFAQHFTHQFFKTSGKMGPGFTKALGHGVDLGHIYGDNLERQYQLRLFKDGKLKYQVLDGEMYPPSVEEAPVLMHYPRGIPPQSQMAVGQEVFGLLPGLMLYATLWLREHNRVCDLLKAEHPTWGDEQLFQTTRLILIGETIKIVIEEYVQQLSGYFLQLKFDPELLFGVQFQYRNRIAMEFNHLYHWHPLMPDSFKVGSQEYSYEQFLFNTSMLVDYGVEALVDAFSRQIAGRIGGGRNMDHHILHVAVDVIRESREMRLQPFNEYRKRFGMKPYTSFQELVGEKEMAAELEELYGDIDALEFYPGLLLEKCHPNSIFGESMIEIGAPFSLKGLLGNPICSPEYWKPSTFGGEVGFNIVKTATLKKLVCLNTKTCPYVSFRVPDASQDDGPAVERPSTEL
Procedure: (§1) b) An in vitro assay system involving incubating a test compound with heparinised human blood, prior to challenge with the calcium ionophore A23187 and then indirectly measuring the inhibitory effects on 5-LO by assaying the amount of LTB4 using the specific radioimmunoassay described by Carey and Forder (F. Carey and R. A. Forder, Brit. J. Pharmacol. 1985, 84, 34P) which involves the use of a protein-LTB4 conjugate produced using the procedure of Young et alia (Prostaglandins, 1983, 26(4), 605-613). The effects of a test compound on the enzyme cyclooxygenase (which is involved in the alternative metabolic pathway for arachidonic acid .and gives rise to prostaglandins, thromboxanes and related metabolites) may be measured at the same time using the specific radioimmunoassay for thromboxane B2 (T×B2) described by Carey and Forder (see above). This test provides an indication of the effects of a test compound against 5-LO and also cyclooxgenase in the presence of blood cells and proteins. It permits the selectivity of the inhibitory effect on 5-LO or cyclooxygenase to be assessed.

[2] = system: 5-LO; assay: Test c) ex vivo assay: administration of compound, blood collection, A23187 challenge, LTB4 radioimmunoassay; type: in vivo
Procedure: c) An ex vivo assay system, which is a variation of test b) above, involving administration of a test compound (usually orally as the suspension produced when a solution of the test compound in dimethylsulphoxide is added to carboxymethylcellulose), blood collection, heparinisation, challenge with A23187 and radioimmunoassay of LTB4 and T×B2. This test provides an indication of the bioavailability of a test compound as an inhibitor of 5-LO or cyclooxygenase.

[3] = target: T2, 5-LO (Homo sapiens, UniProt P09917); assay: Test b) heparinised human blood challenged with A23187, LTB4 radioimmunoassay (5-LO); type: cell-based; details: read-out: IC50 against LTB4
T2 construct: incubating a test compound with heparinised human blood, prior to challenge with the calcium ionophore A23187; endogenous in cells; host or cells: blood cells in heparinised human whole blood
T2 sequence (P09917 1-674): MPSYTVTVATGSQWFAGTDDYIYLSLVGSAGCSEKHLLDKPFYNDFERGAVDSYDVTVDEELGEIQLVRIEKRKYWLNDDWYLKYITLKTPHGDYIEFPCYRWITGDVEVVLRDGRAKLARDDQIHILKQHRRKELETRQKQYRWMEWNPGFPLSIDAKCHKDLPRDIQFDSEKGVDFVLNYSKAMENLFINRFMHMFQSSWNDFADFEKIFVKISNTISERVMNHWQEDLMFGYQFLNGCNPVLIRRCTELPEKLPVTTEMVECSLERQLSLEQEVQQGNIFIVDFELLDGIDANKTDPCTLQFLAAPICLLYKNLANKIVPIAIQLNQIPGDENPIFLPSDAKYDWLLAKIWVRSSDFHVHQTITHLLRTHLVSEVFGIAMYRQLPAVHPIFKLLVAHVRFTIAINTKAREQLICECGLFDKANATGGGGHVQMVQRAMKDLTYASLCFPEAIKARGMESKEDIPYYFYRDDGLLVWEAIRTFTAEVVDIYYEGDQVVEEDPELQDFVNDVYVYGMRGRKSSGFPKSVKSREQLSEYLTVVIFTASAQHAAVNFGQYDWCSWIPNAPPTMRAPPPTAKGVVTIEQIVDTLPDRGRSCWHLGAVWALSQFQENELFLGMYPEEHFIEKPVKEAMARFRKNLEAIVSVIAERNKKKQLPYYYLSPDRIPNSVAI
Procedure: as §1

SMILES: CO[C@H]1CCC[C@@]1(OC)c1cccc(OCC#Cc2ccccn2)c1 (relative stereo) [trans-1,2-dimethoxy-1-[3-(3-(2-pyridyl)prop-2-yn-1-yloxy)phenyl]-cyclopentane]
- IC50 [1]: > 40 µM
- oral ED50 against LTB4 [2]: < 100 mg/k
- IC50 [3]: 8 µM
